Measurements published in paper PMC11272821, “Mechanistic safety assessment via multi-omic characterisation of systemic pathway perturbations following in vivo MAT2A inhibition” (Archives of Toxicology, 2024).

How the values were obtained:
[1] = Plasma toxicokinetic analysis after twice daily oral dosing; format: in vivo; details: rat, n = 5
Procedure: All in vivo experimental procedures were conducted in accordance with United Kingdom legislation (Animals (Scientific Procedures) Act, 1986) and were compliant with the ARRIVE guidelines. 8–10 week old male (210–230 g) Crl:WI Han Wistar rats (Charles River Laboratories Ltd, UK) were acclimatised to the facility for 10 days and then randomised to groups based on bodyweight.
A whole blood sample (32 µL) was collected via a tail vein prick into a K2EDTA treated capillary tube, centrifuged at 1,500 g for 10 min at 4 °C, and plasma collected using a micropipette (non-EDTA Ref.no. 172292, Vitrex Medical A/S, Denmark). Samples were collected on Day 1 and Day 7 at 1 h, 2 h, 4 h, 8 h (pre-second dose), 10 h and 24 h post the first dose.
Calibration and quality control samples were prepared in rat plasma with a target concentration range for quantification of 0.1 – 100 µmol/L. Sample preparation: 8 µl of plasma were diluted in 92 µl of 5% (w/v) bovine serum albumin in phosphate buffer and gently shaken for 10 min before 5 min centrifugation at 2400 g at 4°C. 25 µL were transferred to new tubes and 150 µl of acetonitrile containing an internal standard were added for protein precipitation. After thorough mixing and centrifugation for 5 min at 2400 g and 4°C, 75 µl of supernatant were transferred into new tubes and diluted in 150 µL water/HCOOH (100:0.2, v/v) then thoroughly vortexed and again centrifuged for 5 min at 2400 g and 4°C. 1.5 µl of the supernatant were injected for LC-MS/MS analysis utilizing an Acquity UPLC BEH C18, 2.1x50 […], 1.7 µ column at 60° C. Mobile phase A: Acetonitrile/HCOOH (100/0.2, v/v) and B: water/HCCOH (100/0.2, v/v). Flow rate: 0.75 mL/min.

rat liver transcriptome = test: Liver transcriptomics; format: in vivo
Procedure: Total RNA was purified from liver samples with RNAdvance Tissue™ kit by Beckman Coulter Life Sciences according to manufacturer’s instructions. The method was carried out in an automated robotic solution with Biomek i7 Hybrid™. The concentration and quality of isolated RNA molecules were measured applying parallel capillary electrophoresis using Agilent Fragment Analyzer 5300 (DNF-471-33-SS Total RNA 15nt). The data were analysed in ProSize data analysis software to derive the concentration and RNA quality numbers (RQN) for individual samples.
The double-stranded cDNA obtained with Poly (A)-mRNA enrichment (500 ng total RNA input) was subjected to library preparation using KAPA Hyper Prep Kit (Kapa Biosystems, MA, USA) according to manufacturer’s protocol. The libraries were pooled in a single library and were sequenced on an Illumina NovaSeq6000 with a v1.5 SP 100 cycle kit as paired-end reads to PE51bp. The sequencing runs were carried out according to the manufacturer’s instructions.

SAM = test: Targeted LC–MS of SAM in plasma, liver, brain and heart; format: in vivo, rat
Procedure: SAM and methionine levels were quantified in plasma samples and tissues using Ultra Performance Liquid Chromatography (UPLC) coupled with quantitative MS in ESI positive ion mode as described in Supplementary M&M.
For LCMS analysis, standard curves were spiked to give a calibrated range of 1.0 – 1000 nM for SAM and 1.0 – 2000 for methionine. 5 µL of standard spike solution was added to 45 µL of ACN/MeOH/H2O (40/40/20 v/v/v) and 2.5 µL of deuterated citrulline is added as an internal standard. A further calibration curve was prepared with 5 µL blank mouse plasma, 5 µL of standard and 40 µL of 40:40:20 Acetonitrile:Methanol:0.5% formic acid (Aq) with 2.5 µL of deuterated citrulline was used to investigate matrix suppression effects. Blank plasma was also diluted 1:10 with ACN/MeOH/H2O (40/40/20 v/v/v) and was also analysed to establish systemic biomarker levels.
Metabolomic sample preparation and analysis. Tissue samples (liver, brain, heart) were extracted with 1 mL of ACN/MeOH/H2O 40/40/20 v/v/v per 100 mg material in a PrecellysCK28K-2 mL tube. Tissues were homogenised/extracted in 3x20 sec shake at 5500 rpm and centrifuged for 5 min at 10,621g. After centrifugation a maximum of 800 µL clear supernatant was transferred to cryovials and the same amount of extraction solvent used in the first step was added to tissue precipitate. Extraction procedure was repeated as above and clear supernatants combined in the same cryovial and vial labelled as polar metabolite extract. On the remaining tissue pellet 1ml (per100mg tissue material) of Butanol/MeOH 3/1v/v was added and the above extraction sequence applied. Resulted clear supernatant transferred to a clean cryovial and labelled as lipid extract. All samples kept at the lowest available temperature (0 °C) throughout the extraction process and stored at -80 °C until further analysis.

With `Cn1cc2cc(-c3cc4[nH]nc(C5CC5)c4n(-c4ccc(OC(F)F)cc4)c3=O)ccc2n1` [AZ’9567] as the molecule, how does the “Free AUC24h” value ([1]; 3 mg/kg BID, day 1, mean ± SD) read?
Its value is 0.69 ± 0.07 µM·h.

What about the “Free Cmax” value ([1]; 3 mg/kg BID, day 1, mean ± SD) of the same molecule?
Its value is 40 ± 4 nM.

What about the “Free Cmin24h” value ([1]; 3 mg/kg BID, day 1, mean ± SD) of the same molecule?
Its value is 10 ± 1 nM.

What about the “Free AUC24h” value ([1]; 3 mg/kg BID, day 7, mean ± SD) of the same molecule?
The value was 0.76 ± 0.11 µM·h.

What about the “Free Cmax” value ([1]; 3 mg/kg BID, day 7, mean ± SD) of the same molecule?
Its value is 50 ± 10 nM.

And the “Free Cmin24h” value ([1]; 3 mg/kg BID, day 7, mean ± SD)?
Its value is 10 ± 2 nM.

What about the “Free AUC24h” value ([1]; 10 mg/kg BID, day 1, mean ± SD) of the same molecule?
The value was 2.6 ± 1.1 µM·h.

And the “Free Cmax” value ([1]; 10 mg/kg BID, day 1, mean ± SD)?
Its value is 210 ± 60 nM.

And the “Free Cmin24h” value ([1]; 10 mg/kg BID, day 1, mean ± SD)?
The value was 40 ± 20 nM.

And the “Free AUC24h” value ([1]; 10 mg/kg BID, day 7, mean ± SD)?
Its value is 3.9 ± 0.70 µM·h.

And the “Free Cmax” value ([1]; 10 mg/kg BID, day 7, mean ± SD)?
Its value is 270 ± 110 nM.

And the “Free Cmin24h” value ([1]; 10 mg/kg BID, day 7, mean ± SD)?
Its value is 80 ± 30 nM.

What about the “Free AUC24h” value ([1]; 30 mg/kg BID, day 1, mean ± SD) of the same molecule?
The value was 12 ± 1.1 µM·h.

What about the “Free Cmax” value ([1]; 30 mg/kg BID, day 1, mean ± SD) of the same molecule?
The value was 870 ± 190 nM.

And the “Free Cmin24h” value ([1]; 30 mg/kg BID, day 1, mean ± SD)?
Its value is 140 ± 40 nM.

What about the “Free AUC24h” value ([1]; 30 mg/kg BID, day 7, mean ± SD) of the same molecule?
Its value is 9.9 ± 2.2 µM·h.

And the “Free Cmax” value ([1]; 30 mg/kg BID, day 7, mean ± SD)?
Its value is 680 ± 190 nM.

What about the “Free Cmin24h” value ([1]; 30 mg/kg BID, day 7, mean ± SD) of the same molecule?
Its value is 150 ± 50 nM.

And the “differentially expressed liver genes” value (rat liver transcriptome; high dose (30 mg/kg BID))?
Its value is 1638.

And the “differentially expressed liver genes” value (rat liver transcriptome; low dose (3 mg/kg BID))?
Its value is 2080.

And the “plasma SAM decrease, lower than the vehicle controls” value (SAM; 30 mg/kg BID)?
Its value is 70%.

And the “brain SAM change” value (SAM; 3 and 10 mg/kg BID)?
The value was “no significant change”.

And the “heart SAM decrease” value (SAM; all dose levels)?
Its value is ~90%.

And the “liver SAM decrease” value (SAM; all doses)?
The value was ~ 45%.
